From ChEMBL document CHEMBL2046309, “Semi-synthesis and bio-evaluation of polybrominated diphenyl ethers from the sponge Dysidea herbacea” (Bioorg Med Chem Lett, 2012)
Values after ≈ are worked out from the molar mass of the structure shown. Active and inactive are the calls of the source. The rule behind the calls is not given here.

Experiments:
U-937 = assay: Cytotoxicity against human U937 cells assessed as decrease in cell number after 24 hrs by MTT assay; assay type: functional, cell-based; details: U-937, 24 h
HL-60 = assay: Cytotoxicity against human HL60 cells assessed as decrease in cell number after 24 hrs by MTT assay; assay type: functional, cell-based; details: HL-60, 24 h
Pseudomonas syringae = assay: Antibacterial activity against Pseudomonas syringae by paper disc assay method; assay type: functional, organism-based
Staphylococcus aureus = assay: Antibacterial activity against Staphylococcus aureus by paper disc assay method; assay type: functional, organism-based
Escherichia coli = assay: Antibacterial activity against Escherichia coli by paper disc assay method; assay type: functional, organism-based
Artemia = assay: Toxicity in brine shrimps; assay type: organism-based; details: in vivo
Bacillus subtilis = assay: Antibacterial activity against Bacillus subtilis by paper disc assay method; assay type: functional, organism-based

| Structure (SMILES) | IC50 (U-937) [µg/mL] | IC50 (HL-60) [µg/mL] | also measured |
| --- | --- | --- | --- |
| OCCCOc1c(Br)cc(Br)cc1Oc1ccc(Br)cc1Br | 32.3 (≈ 57.7 µM) | 29.9 (≈ 53.4 µM) |  |
| Brc1ccc(Oc2cc(Br)cc(Br)c2OCCCCCN2CCN(C/C=C/c3ccccc3)CC2)c(Br)c1 | 32.7 (≈ 42.3 µM) | 47.2 (≈ 61.1 µM) |  |
| CC(C)(C)OC(=O)N1CCN(CCCCCOc2c(Br)cc(Br)cc2Oc2ccc(Br)cc2Br)CC1 | 35.5 (≈ 46.9 µM) | 32.1 (≈ 42.5 µM) |  |
| CN1CCN(CCCCCOc2c(Br)cc(Br)cc2Oc2ccc(Br)cc2Br)CC1 | 49.1 (≈ 73.3 µM) | 48.3 (≈ 72.1 µM) |  |
| COc1cc([C@@H]2c3cc4c(cc3[C@@H](O[C@@H]3O[C@@H]5CO[C@@H](C)O[C@H]5[C@H](O)[C@H]3O)[C@H]3COC(=O)[C@H]23)OCO4)cc(OC)c1O [ETOPOSIDE] |  | 1.1 (≈ 1.87 µM) |  |
| C#CCOc1c(Br)cc(Br)cc1Oc1ccc(Br)cc1Br | 29.5 (≈ 54.6 µM) | 29.7 (≈ 55 µM) |  |
| Brc1ccc(Oc2cc(Br)cc(Br)c2OCCCCCN2CCOCC2)c(Br)c1 | 39.8 (≈ 60.6 µM) | 50.5 (≈ 76.9 µM) |  |
| BrCCOc1c(Br)cc(Br)cc1Oc1ccc(Br)cc1Br | 32.5 (≈ 53.4 µM) | 26.2 (≈ 43 µM) |  |
| OCCOc1c(Br)cc(Br)cc1Oc1ccc(Br)cc1Br | 34.5 (≈ 63.2 µM) | 28.2 (≈ 51.7 µM) |  |
| BrCCCOc1c(Br)cc(Br)cc1Oc1ccc(Br)cc1Br | 30.3 (≈ 48.7 µM) | 29.9 (≈ 48 µM) |  |
| Cc1ccc(S(=O)(=O)n2nc(N3CCN(CCCCCOc4c(Br)cc(Br)cc4Oc4ccc(Br)cc4Br)CC3)c3cc([N+](=O)[O-])ccc32)cc1 | 68.5 (≈ 70.5 µM) | 52.5 (≈ 54 µM) |  |
| BrCCCCOc1c(Br)cc(Br)cc1Oc1ccc(Br)cc1Br | 29 (≈ 45.5 µM) | 25.9 (≈ 40.7 µM) |  |
| CC(=O)Oc1c(Br)cc(Br)cc1Oc1ccc(Br)cc1Br | 32.3 (≈ 59.4 µM) | 29.9 (≈ 55 µM) | Activity (Pseudomonas syringae): Active; Activity (Staphylococcus aureus): Active; Activity (Escherichia coli): Active; LC50 (Artemia): 23.28 ppm; Activity (Bacillus subtilis): Active |
| COc1ccccc1N1CCN(CCCCCOc2c(Br)cc(Br)cc2Oc2ccc(Br)cc2Br)CC1 | 37.5 (≈ 49.2 µM) | 32.2 (≈ 42.2 µM) |  |
| BrCCCCCOc1c(Br)cc(Br)cc1Oc1ccc(Br)cc1Br | 29.5 (≈ 45.3 µM) | 25.7 (≈ 39.5 µM) |  |
| Oc1c(Br)cc(Br)cc1Oc1ccc(Br)cc1Br | 22.5 (≈ 44.8 µM) | 19.3 (≈ 38.5 µM) | LC50 (Artemia): 12.8 ppm |
| Brc1ccc(Oc2cc(Br)cc(Br)c2OCCCCCN2CCN(c3ccccc3)CC2)c(Br)c1 | 42.5 (≈ 58 µM) | 41.6 (≈ 56.8 µM) |  |
| CC(C)(C)OC(=O)N1CCCN(CCCCCOc2c(Br)cc(Br)cc2Oc2ccc(Br)cc2Br)CC1 | 39.5 (≈ 51.3 µM) | 44.8 (≈ 58.2 µM) |  |
| BrCCCCCCOc1c(Br)cc(Br)cc1Oc1ccc(Br)cc1Br | 33.8 (≈ 50.8 µM) | 37.8 (≈ 56.9 µM) |  |
| CC(C)(C)C(=O)C(C#N)Oc1c(Br)cc(Br)cc1Oc1ccc(Br)cc1Br (stereo not drawn) | 32.5 (≈ 52 µM) | 29.2 (≈ 46.7 µM) |  |
| Brc1ccc(Oc2cc(Br)cc(Br)c2OCc2ccccc2)c(Br)c1 | 29 (≈ 49 µM) | 27.9 (≈ 47.1 µM) |  |
| CCOC(=O)C(C)Oc1c(Br)cc(Br)cc1Oc1ccc(Br)cc1Br (stereo not drawn) | 39.5 (≈ 65.6 µM) | 35.7 (≈ 59.3 µM) |  |
| C=CCOc1c(Br)cc(Br)cc1Oc1ccc(Br)cc1Br | 29 (≈ 53.5 µM) | 27.9 (≈ 51.5 µM) |  |
| COc1c(Br)cc(Br)cc1Oc1ccc(Br)cc1Br | 34.5 (≈ 66.9 µM) | 28.2 (≈ 54.7 µM) | Activity (Pseudomonas syringae): Active; Activity (Staphylococcus aureus): Active; Activity (Escherichia coli): Active; LC50 (Artemia): 19.28 ppm; Activity (Bacillus subtilis): Active |
